Converted amounts (≈) assume the structure as drawn. Where two headings read alike, the source gives them in different places.
Tests used:
[1] = test system: L1210 lymphoid leukemia cells; assay: Cytotoxicity, L1210 lymphoid leukemia cells; assay type: cell-based; conditions: Mus musculus, read-out: ED50 (cytotoxicity), L1210
Method: (§1) More specifically, the cytotoxic activity of the boron adducts of the present invention was tested on the following neoplastic cell lines:
1. L1210 lymphoid leukemia cells, R. Geran et al., Cancer Chemotherapy Reports 3, 7 (1972).(grown in RPMI+15% FBS+antibiotics).
(§2) The cytotoxic screens were conducted according to NIH protocols, see E. Huang et al., J. Pharm. Sci. 61, 108 (1972), with 10^4 cells, growth medium, antibiotics and drugs from 0.5 to 100 μg/ml final concentration. For the L1210, Hela-S, amd Tmolt, (i.e. the suspended cells), the incubations were conducted in sterile test tubes in a final volume of 1 ml for 72 hr at 37° C. in a CO2 incubator. The cells on the third day were still in log growth phase. The number of cells/ml are determined using trypan blue exclusion and a hemocytometer. See, e.g., R. Geran, supra. For solid tumors there is plated out in wells 1×10^4 cells with 1 ml of medium+antibiotics and the other components of growth. When the controls have converged (≈95%) then the density of the cells is estimated and the ED50 values calculated.

P388 = assay: Cytotoxicity, P388; assay type: cell-based
Method: as §2

inflammatory response = assay: Anti-inflammatory activity, carrageenan-injected hind foot; assay type: in vivo, CF1 male mice; conditions: mice; for Antiinflammatory Activity, % inhibition: 8 mg/kg/day, intraperitoneal, 3 hours and 30 minutes prior to carrageenan
Method: CF1 male mice (~25 g) were administered test drugs at 5-40 mg/kg in 0.05% Tween 80--H2 O intraperitoneally 3 hours prior to and 30 minutes prior to the injection of 0.2 ml of 1% carrageenan in 0.9% saline into the plantar surface of the right hind foot. Saline was injected into the left hind foot, which serves as a base line. After 3 hours, both feet were excised at the tibiotarsal (ankle) joint according to standard procedures. See C. Winter et al., Proc. Soc. Expt. Biol Med. 544, 111 (1962); A. Roszkawski et al., J. Pharm. Exp. Ther. 179, 114 (1971). Control mice afforded a 78±3 mg increase in paw weight.

serum cholesterol levels = assay: Antihyperlipidemic activity, serum cholesterol; assay type: in vivo, male CF1 mice; conditions: 8 mg/kg/day; intraperitoneal for 16d; mice
Method: (§3) Compounds to be tested were suspended in 1% aqueous carboxymethylcellulose,homogenized and administered to male CF1 mice (25 g) intraperitoneally for 16d. On days 9 and 16, blood was obtained by tail vein bleeding, and the serum was separated by centrifugation for three minutes. The serum cholesterol levels were determined by a modification of the Liebermann--Burchard reaction in accordance with known techniques. See A. Ness, et al., Clin. Chim. Acta 10, 229 (1964). Serum triglyceride levels were determined with a commercial kit, the Fisher Hycel Triglyceride Test Kit, for a different group of animals bled on day 16.

[2] = test system: Serum triglyceride levels; assay: Antihyperlipidemic activity, serum triglyceride; assay type: in vivo, male CF1 mice; conditions: 8 mg/kg/day; intraperitoneal, bled on day 16; mice
Method: as §3

[3] = Stability in aqueous medium by HPLC; assay type: physicochemical; conditions: for remaining at 168 h: period of 168 h, read-out: stable in aqueous medium
Method: By HPLC, compounds 3a, 3b, and 3d in aqueous medium (0.01 M TEAAc) are >94% stable over a period of 168 h. […], however, is >50% decomposed during this period.

[4] = test system: Tmolt acute lymphoblastic T cell leukemia; assay: Cytotoxicity, Tmolt acute lymphoblastic T cell leukemia; assay type: cell-based; conditions: T-cell, read-out: ED50 (cytotoxicity), Tmolt
Method: as §1
2. Tmolt^S acute lymphoblastic T cell leukemia, S. Schreiber and N. Ikemoto, Tett. Lett 29, 3211 (1988) (grown in RPMI - 1640+10% FBS).
as §2

[5] = test system: SW480 human colorectal carcinoma; assay: Cytotoxicity, colon adenocarcinoma SW480 human colorectal carcinoma; assay type: cell-based
Method: as §1
3. Colon adenocarcinoma SW480 human colorectal carcinoma. A. Leibovitz et al., Cancer Res. 36, 4562 (1976) (grown in L15+10% FBS).
as §2

[6] = test system: KB epidermoid oral nesopharnyx; assay: Cytotoxicity, KB epidermoid oral nasopharynx; assay type: cell-based; conditions: Homo sapiens, read-out: ED50 (cytotoxicity), KB
Method: 6. KB epidermoid oral nesopharnyx. R. Geran, supra: H. Eagle, Proc. Soc. Expt.
Biol. 89, 362 (1955)(grown in EMEM +5% calf serum).
as §2

[7] = test system: Lung bronchogenic MB-9812; assay: Cytotoxicity, lung bronchogenic MB-9812; assay type: cell-based; conditions: read-out: ED50 (cytotoxicity), Lung Bronchogenic
Method: 4. Lung bronchogenic MB-9812, S. Aronson et al., Expt. Cell Res. 61, 1 (1970) (grown in EMEM+10% FBS+NEAA).
as §2

Hela-S = assay: Cytotoxicity, Hela-S cervical carcinoma suspended; assay type: cell-based; conditions: Homo sapiens, read-out: ED50 (cytotoxicity), Hela-S
Method: 7. Hela-S, ATCC-CCL 2.2, cervical carcinoma suspended, S. Schreiber and N. Ikemoto, supra; T. Puck et al., J. Exp. Med. 103. 273 (1956) (grown in Joklik+5% FBS, Ham's F12 +5% FBS).
as §2

Human Osteosarcoma TE418 = assay: Cytotoxicity, human osteosarcoma TE418; assay type: cell-based
Method: 5. Human Osteosarcoma TE418. H. Smith et al., Int. J. Cancer 17, 219 (1976) (grown in DMEM+10% FBS).
as §2

[8] = test system: Human glioma cell EH 118 MG; assay: Cytotoxicity, human glioma cell EH 118 MG; assay type: cell-based; conditions: read-out: ED50 (cytotoxicity), Glioma
Method: 9. Human glioma cell EH 118 MG transformed stain of Rous sarcoma virus, J. Lutton et al., J. Biol. Chem. 254, 11181 (1979) (grown in DMEM-H+10% FCS).
as §2

[9] = Mus musculus, P388; read-out: ED50 (cytotoxicity), P388
[10] = Homo sapiens, SW480; read-out: ED50 (cytotoxicity), Adeno Carcinoma SW480

| remaining at 168 h ([3]; 0.01 M TEAAc, HPLC) | SMILES | IC50 ([1]; L1210, 72 hr at 37° C.) | IC50 (P388; [9]) | Antiinflammatory Activity, % inhibition (inflammatory response) | Hypolipidemic: Cholesterol Inhibition, % inhibition (serum cholesterol levels) | Hypolipidemic: Triglyceride Inhibition, % inhibition [2] | IC50 [6] | IC50 ([4]; Tmolt, 72 hr at 37° C.) | IC50 [5, 10] | IC50 ([7]; Lung bronchogenic MB-9812) | IC50 (Hela-S; Hela-S, 72 hr at 37° C.) | IC50 ([8]; Glioma EH 118 MG) | other results |
| --- | --- | --- | --- | --- | --- | --- | --- | --- | --- | --- | --- | --- | --- |
| > 94% | N#C[BH2-][n+]1cn([C@H]2C[C@H](O)[C@@H](CO)O2)c2nc(N)[nH]c(=O)c21 [Compound 3a, 2'-Deoxyguanosine-N7-cyanoborane] | 5.08 µg/mL (≈ 16.6 µM) | 5.87 µg/mL (≈ 19.2 µM) | 22% | 44% | 37% |  |  |  |  |  |  | stability in aqueous medium ([3]; in words, aqueous medium): good stability |
|  | CC(C)[Si](OC[C@H]1O[C@@H](n2c[n+]([BH2-]C#N)c3c(=O)[nH]c(N)nc32)C[C@@H]1O[Si](C(C)C)(C(C)C)C(C)C)(C(C)C)C(C)C [Compound 2a, 3',5'-O-Bis(triisopropylsilyl)-2'-deoxyguanosine N7-cyanoborane] |  |  |  |  |  | 2.67 µg/mL (≈ 4.31 µM) |  |  |  |  |  | IC50 ([1]; L1210, 72 h): 6.05 µg/mL (≈ 9.78 µM); IC50 (P388; Mus musculus, P388, read-out: ED50 (cytotoxicity), P388): 5.13 µg/mL (≈ 8.29 µM); IC50 ([4]; 72 h): 2.26 µg/mL (≈ 3.65 µM); IC50 ([5]; Homo sapiens, SW480, read-out: ED50 (cytotoxicity), Adeno Carcinoma SW480): 2.67 µg/mL (≈ 4.31 µM); IC50 [7]: 4.05 µg/mL (≈ 6.55 µM); IC50 (Hela-S; HeLa, 72 h): 2.83 µg/mL (≈ 4.57 µM); IC50 (Human Osteosarcoma TE418; read-out: ED50 (cytotoxicity), Osteo sarcoma): 7.2 µg/mL (≈ 11.6 µM); IC50 [8]: 7.61 µg/mL (≈ 12.3 µM) |
|  | CCCCC1C(=O)N(c2ccccc2)N(c2ccccc2)C1=O [phenylbutazone, reference compound] |  |  |  |  |  |  |  |  |  |  |  | Antiinflammatory Activity, % inhibition (Standard) (inflammatory response; standard, column head 8 mg/kg/day): 47% |
|  | CC(C)[Si](OC[C@H]1O[C@@H](n2ccc(N)[n+]([BH2-]C#N)c2=O)C[C@@H]1O[Si](C(C)C)(C(C)C)C(C)C)(C(C)C)C(C)C [Compound 2d, 3', 5'-O-Bis(triisopropylsilyl)-2'-deoxycytidine-N3-cyanoborane] | 4.78 µg/mL (≈ 8.26 µM) | 7.26 µg/mL (≈ 12.5 µM) |  |  |  | 5.72 µg/mL (≈ 9.88 µM) | 3.36 µg/mL (≈ 5.81 µM) | 2.73 µg/mL (≈ 4.72 µM) | 6.6 µg/mL (≈ 11.4 µM) | 2.94 µg/mL (≈ 5.08 µM) | 6.77 µg/mL (≈ 11.7 µM) |  |
| > 94% | N#C[BH2-][n+]1cn([C@H]2C[C@H](O)[C@@H](CO)O2)c2nc[nH]c(=O)c21 [Compound 3b, 2'-Deoxyinosine-N^7-cyanoborane] | 4 µg/mL (≈ 13.7 µM) | 7.21 µg/mL (≈ 24.8 µM) | 25% | 19% | 30% | 3.45 µg/mL (≈ 11.9 µM) | 1.73 µg/mL (≈ 5.94 µM) | 3.86 µg/mL (≈ 13.3 µM) | 4.93 µg/mL (≈ 16.9 µM) | 2.41 µg/mL (≈ 8.28 µM) | 8.49 µg/mL (≈ 29.2 µM) | IC50 (Human Osteosarcoma TE418; Osteosarcoma TE418, read-out: ED50 (cytotoxicity), Osteo sarcoma): 7.28 µg/mL (≈ 25 µM); degraded at 168 h ([3]; 0.01 M TEAAc, 168 h, HPLC, read-out: decomposed in aqueous medium): > 50% |

Reference: patent US5130302A, “Boronated nucleoside, nucleotide and oligonucleotide compounds, compositions and methods for using same” (Boron Bilogicals, Inc., priority 1989, dated 1992)
